{"source": "paper PMC6222715", "about": "“Squalene Cyclases and Cycloartenol Synthases from Polystichum polyblepharum and Six Allied Ferns” (Molecules : A Journal of Synthetic Chemistry and Natural …, 2018)", "molecular_target": "PPH (Polystichum polyblepharum, UniProt A0A3G9ELI1)", "sequence (A0A3G9ELI1 1-685)": "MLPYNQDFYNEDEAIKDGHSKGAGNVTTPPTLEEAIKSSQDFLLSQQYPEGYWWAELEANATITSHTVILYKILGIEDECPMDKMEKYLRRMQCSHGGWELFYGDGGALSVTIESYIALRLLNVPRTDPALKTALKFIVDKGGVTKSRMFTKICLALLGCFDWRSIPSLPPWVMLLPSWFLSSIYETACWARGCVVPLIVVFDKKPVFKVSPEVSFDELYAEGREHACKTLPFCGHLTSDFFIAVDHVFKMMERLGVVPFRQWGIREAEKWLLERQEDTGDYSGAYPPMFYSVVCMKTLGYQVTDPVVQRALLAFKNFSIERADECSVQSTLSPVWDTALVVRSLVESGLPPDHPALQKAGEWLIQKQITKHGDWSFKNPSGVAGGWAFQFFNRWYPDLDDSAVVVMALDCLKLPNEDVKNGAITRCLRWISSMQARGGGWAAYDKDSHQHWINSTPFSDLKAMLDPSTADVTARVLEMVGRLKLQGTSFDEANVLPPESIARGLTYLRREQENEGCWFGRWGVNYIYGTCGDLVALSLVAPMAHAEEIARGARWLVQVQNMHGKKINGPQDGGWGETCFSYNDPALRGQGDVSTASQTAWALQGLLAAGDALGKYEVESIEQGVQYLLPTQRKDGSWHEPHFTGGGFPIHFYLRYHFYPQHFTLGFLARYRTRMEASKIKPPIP", "test": "product formation in yeast cells, GC", "type": "cell-based", "details": "endogenous squalene accumulated with terbinafine; in vivo; phosphate pH 7.0"}
{"smiles": "CC(C)=CCC/C(C)=C/CC/C(C)=C/CC/C=C(\\C)CC/C=C(\\C)CCC=C(C)C", "note": "[compound 1, squalene]", "values": [{"measurement": "product formation in yeast cells, GC", "value": "PPH could use the accumulated endogenous squalene as an in vivo substrate"}]}
